The target of one data set is Human KCNQ2/3 channel (Homo sapiens (Human), UniProt O43525+O43526). Put plainly: Opening action with respect to KCNQ2/3 channel by depolarization stimulation (thallium influx, FLIPR). It counts as cell-based. The conditions noted are these: concentration giving 50% of maximum reaction of retigabine (10 μM); human KCNQ2/3 expression CHO-DHFR- cells; 5 mM potassium and 0.5 mM thallium; read-out: KCNQ2/3 ECrtg50. On the procedure:
Human KCNQ2/3 expression cells (CHO-DHFR-cells) were seeded in each well of 384 well plate (collagen-coated, black, clear bottom) at 0.5×10^4 cells/50 μL per well, and cultured in a MEM ALPHA medium (containing 10 vol % inactivated (56° C., 30 min) Fetal Bovine Serum and 100 IU/mL Penicillin—100 μg/mL Streptomycin—2 mM L-Glutamine) at 37° C. in 5% CO2 for 18 to 24 hours. The medium in the plate was removed. Then, incubation (room temperature, 60 minutes, light-shielded) was carried out in a loading buffer (prepared by the method described in the manual of FluxOR Thallium Detection Kit (Invitrogen, F10016, F10017)). KCNQ2/3 channel opening action (thallium influx into cells) by the depolarization stimulation (5 mM potassium and 0.5 mM thallium) was measured by FLIPR TETRA (Molecular Devices). The compound of the present invention had been treated five minutes before the depolarization stimulation, and the reaction induced by the depolarization stimulation was measured over time for 180 seconds. The channel opening action of the compound of the present invention was evaluated based on the change amount of the fluorescence intensity from the time before the depolarization stimulation to the time after the passage of 180 seconds. Thus, the concentration (ECrtg50) satisfying 50% of the fluorescence intensity change of maximum reaction (at the time of 10 μM-treatment) of retigabine under this experiment condition was calculated.

Data set [1] can be described thus: Solubility test (DMSO precipitation method, Pharmacopoeia of Japan elution test second solution). In kind it is physicochemical. The conditions noted are these: Pharmacopoeia of Japan elution test second solution pH=6.8, room temperature, five hours, quantitation range 5 to 100 μM; for solubility at 5 h: aqueous buffer, kinetic from dmso stock. On the procedure:
A calibration curve solution was prepared by diluting a test substance (10 mM DMSO solution) with acetonitrile and adding acetonitrile including an internal standard substance (candesartan) so as to be 0.1, 0.4, and 2 μM.
Sample solution was prepared as follows: 5 μL of the compound of the present invention (10 mM DMSO solution) was added to 495 μL of the Pharmacopoeia of Japan elution test second solution (pH=6.8), and the resulting mixture was stirred at room temperature for five hours. Then, the solution was placed into a solubility filter plate and subjected to suction filtration. The filtrate (20 μL) was diluted with acetonitrile, followed by adding acetonitrile including an internal standard substance ([…]).
The calibration curve and sample solutions in the amount of 5 μL were infused into LC-MS/MS (Discovery Max manufactured by Thermo Scientific) and subjected to quantitation (quantitation range: 5 to 100 μM).

In brackets after ≈: the same amount, converted by molar mass.

`Cc1cccnc1CNC(=O)Nc1c(Cl)cc(C(C)(O)C(F)(F)F)cc1Cl` (centres unmarked) [Example 5 (7), 1-[2,6-dichloro-4-(1,1,1-trifluoro-2-hydroxy-2-propanyl)phenyl]-3-[(3-methyl-2-pyridinyl)methyl]urea]: at Human KCNQ2/3 channel, the EC50 is 500 nM. For `CC(O)(c1cc(Cl)c(NC(=O)NCc2nc(C3CC3)no2)c(Cl)c1)C(F)(F)F` (centres unmarked) [Example 5 (22), 1-[(3-cyclopropyl-1,2,4-oxadiazole-5-yl)methyl]-3-[2,6-dichloro-4-(1,1,1-trifluoro-2-hydroxy-2-propanyl)phenyl]urea], the EC50 on Human KCNQ2/3 channel was determined as 700 nM. This molecule also registered a solubility at 5 h in data set [1] of 85 µM (≈ 37.3 µg/mL). `CC(O)(c1ccc(NC(=O)NCc2ccc(C(F)(F)F)cn2)cc1)C(F)(F)F` (centres unmarked) [Comparative Example 1, 1-[4-(1,1,1-trifluoro-2-hydroxy-2-propanyl)phenyl]-3-{[5-(trifluoromethyl)-2-pyridinyl]methyl}urea, reference compound]: at Human KCNQ2/3 channel, the EC50 was > 10000 nM. On to `CC(O)(c1cc(Cl)c(NC(=O)NCc2ncc(C(F)(F)F)cn2)c(Cl)c1F)C(F)(F)F` (centres unmarked) [Example 43 (1), 1-[2,6-dichloro-3-fluoro-4-(1,1,1-trifluoro-2-hydroxy-2-propanyl)phenyl]-3-{[5-(trifluoromethyl)-2-pyrimidinyl]methyl}urea], for which the EC50 on Human KCNQ2/3 channel was 400 nM. Further, the solubility at 5 h in data set [1] was 89 µM (≈ 44.1 µg/mL). For the molecule `CC(O)(c1cc(F)c(NC(=O)NCc2ccc(C(F)(F)F)cn2)c(Cl)c1)C(F)(F)F` (centres unmarked) [Example 49, 1-[2-chloro-6-fluoro-4-(1,1,1-trifluoro-2-hydroxy-2-propanyl)phenyl]-3-{[5-(trifluoromethyl)-2-pyridinyl]methyl}urea], the EC50 on Human KCNQ2/3 channel is 600 nM. On to `CC(O)(c1cc(Cl)c(NC(=O)NCc2nccn2Cc2ccccc2)c(Cl)c1)C(F)(F)F` (centres unmarked) [Example 5 (12), 1-[(1-benzyl-1H-imidazole-2-yl)methyl]-3-[2,6-dichloro-4-(1,1,1-trifluoro-2-hydroxy-2-propanyl)phenyl]urea], for which, on Human KCNQ2/3 channel, the EC50 turned out to be 2900 nM. For the molecule `CC(O)(CC(F)(F)F)c1cc(Cl)c(NC(=O)NCc2ccc(C(F)(F)F)cn2)c(Cl)c1` (centres unmarked) [Example 67, 1-[2,6-dichloro-4-(4,4,4-trifluoro-2-hydroxy-2-butanyl)phenyl]-3-{[5-(trifluoromethyl)-2-pyridinyl]methyl}urea], the EC50 at Human KCNQ2/3 channel is 3500 nM. In the case of `CC(O)(c1cc(Cl)c(NC(=O)NCC2(O)CCC(F)(F)CC2)c(Cl)c1)C(F)(F)F` (centres unmarked) [Example 5 (6), 1-[2,6-dichloro-4-(1,1,1-trifluoro-2-hydroxy-2-propanyl)phenyl]-3-[(4,4-difluoro-1-hydroxycyclohexyl)methyl]urea], the EC50 on Human KCNQ2/3 channel worked out at 400 nM. In addition, the concentration in solution in data set [1] (solubility at 5 h) was 94 µM (≈ 43.7 µg/mL). Regarding `CC(O)(c1cc(Cl)c(NC(=O)NCc2cccc(N3CCCCC3)n2)c(Cl)c1)C(F)(F)F` (centres unmarked) [Example 5 (3), 1-[2,6-dichloro-4-(1,1,1-trifluoro-2-hydroxy-2-propanyl)phenyl]-3-{[6-(1-piperidinyl)-2-pyridinyl]methyl}urea], at Human KCNQ2/3 channel, the EC50 is 500 nM. On to `CC(O)(c1cc(Cl)c(NC(=O)NCc2ccc(Br)cn2)c(Cl)c1)C(F)(F)F` (centres unmarked) [Example 5 (11), 1-[(5-bromo-2-pyridinyl)methyl]-3-[2,6-dichloro-4-(1,1,1-trifluoro-2-hydroxy-2-propanyl)phenyl]urea], for which the EC50 at Human KCNQ2/3 channel stood at 70 nM. For `CC(C)(C)CC(=O)Nc1c(Cl)cc(C(C)(O)C(F)(F)F)cc1Cl` (centres unmarked) [Example 50 (4), N-[2,6-dichloro-4-(1,1,1-trifluoro-2-hydroxy-2-propanyl)phenyl]-3,3-dimethylbutane amide], the EC50 at Human KCNQ2/3 channel was found to be 50 nM. Still for that read-out and setting: with `CC(C)[C@@H](C)NC(=O)Nc1c(Cl)cc(C(C)(O)C(F)(F)F)cc1Cl` (stereo partly drawn) [Example 5 (21), 1-[2,6-dichloro-4-(1,1,1-trifluoro-2-hydroxy-2-propanyl)phenyl]-3-[(2R)-3-methyl-2-butanyl]urea] the figure was 70 nM; with `CC(O)(c1cc(Cl)c(NC(=O)NCc2cc(-c3ccccc3)on2)c(Cl)c1)C(F)(F)F` (centres unmarked) [Example 5 (16), 1-[2,6-dichloro-4-(1,1,1-trifluoro-2-hydroxy-2-propanyl)phenyl]-3-[(5-phenyl-1,2-oxazole-3-yl)methyl]urea], 10 nM. In the case of `CC(O)(c1cc(Cl)c(NC(=O)NCc2ncccc2C(F)(F)F)c(Cl)c1)C(F)(F)F` (centres unmarked) [Example 5 (9), 1-[2,6-dichloro-4-(1,1,1-trifluoro-2-hydroxy-2-propanyl)phenyl]-3-{[3-(trifluoromethyl)-2-pyridinyl]methyl}urea], the EC50 at Human KCNQ2/3 channel worked out at 300 nM. The same molecule returned a solubility at 5 h in data set [1] of 91 µM (≈ 43.3 µg/mL).

Consider `CC(O)(c1cc(Cl)c(NC(=O)NCc2ccc(C(F)(F)F)o2)c(Cl)c1)C(F)(F)F` (centres unmarked) [Example 5 (17), 1-[2,6-dichloro-4-(1,1,1-trifluoro-2-hydroxy-2-propanyl)phenyl]-3-{[5-(trifluoromethyl)-2-furyl]methyl}urea], for which the EC50 at Human KCNQ2/3 channel was determined as 3 nM. Same read-out and setting: in the case of `CC(O)(c1cc(Cl)c(NC(=O)CCc2cccc(C(F)(F)F)c2)c(Cl)c1)C(F)(F)F` (centres unmarked) [Example 50 (6), N-[2,6-dichloro-4-(1,1,1-trifluoro-2-hydroxy-2-propanyl)phenyl]-3-[3-(trifluoromethyl)phenyl]propanamide] it was 60 nM.

As to `CC(NC(=O)Nc1c(Cl)cc(C(C)(O)C(F)(F)F)cc1Cl)C(C)(C)C` (centres unmarked) [Example 5 (4), 1-[2,6-dichloro-4-(1,1,1-trifluoro-2-hydroxy-2-propanyl)phenyl]-3-(3,3-dimethyl-2-butanyl)urea], the EC50 at Human KCNQ2/3 channel amounted to 3 nM. Moreover, the concentration in solution in data set [1] (solubility at 5 h) was 79 µM (≈ 31.7 µg/mL). Turning to `CC(O)(c1cc(Cl)c(NC(=O)CCc2ccc(F)cc2)c(Cl)c1)C(F)(F)F` (centres unmarked) [Example 50 (2), N-[2,6-dichloro-4-(1,1,1-trifluoro-2-hydroxy-2-propanyl)phenyl]-3-(4-fluorophenyl)propanamide], the EC50 on Human KCNQ2/3 channel was 30 nM. Moreover, the solubility at 5 h in data set [1] amounted to 41 µM (≈ 17.4 µg/mL).

Regarding `Cc1cc(C(O)C(F)(F)F)cc(Cl)c1NC(=O)NCc1ccc(C(F)(F)F)cn1` (centres unmarked) [Example 62, 1-[2-chloro-6-methyl-4-(2,2,2-trifluoro-1-hydroxyethyl)phenyl]-3-{[5-(trifluoromethyl)-2-pyridinyl]methyl}urea], on Human KCNQ2/3 channel, the EC50 was determined as 60 nM. In data set [1], the solubility at 5 h came to 71 µM (≈ 31.4 µg/mL). For `CC(O)(c1cc(Cl)c(NC(=O)CCc2ccccc2C(F)(F)F)c(Cl)c1)C(F)(F)F` (centres unmarked) [Example 50 (7), N-[2,6-dichloro-4-(1,1,1-trifluoro-2-hydroxy-2-propanyl)phenyl]-3-[2-(trifluoromethyl)phenyl]propanamide], the EC50 at Human KCNQ2/3 channel came to 40 nM.

With `CC(O)(c1cc(Cl)c(NC(=O)NCC2CCCCC2)c(Cl)c1)C(F)(F)F` (centres unmarked) [Example 5 (10), 1-(cyclohexylmethyl)-3-[2,6-dichloro-4-(1,1,1-trifluoro-2-hydroxy-2-propanyl)phenyl]urea], the EC50 at Human KCNQ2/3 channel stood at 0.3 nM. The same measure, in the same setting: in the case of `NC(c1cc(Cl)c(NC(=O)NCc2cnc(C(F)(F)F)s2)c(Cl)c1)C(F)(F)F` (centres unmarked) [Example 79 (4), 1-[4-(1-amino-2,2,2-trifluoroethyl)-2,6-dichlorophenyl]-3-{[2-(trifluoromethyl)-1,3-thiazole-5-yl]methyl}urea] it was 300 nM. Regarding `CC1(C)CC(CNC(=O)Nc2c(Cl)cc(C(C)(O)C(F)(F)F)cc2Cl)CCO1` (centres unmarked) [Example 5 (5), 1-[2,6-dichloro-4-(1,1,1-trifluoro-2-hydroxy-2-propanyl)phenyl]-3-[(2,2-dimethyltetrahydro-2H-pyran-4-yl)methyl]urea], on Human KCNQ2/3 channel, the EC50 was found to be 300 nM. The molecule also yielded a solubility at 5 h in data set [1] of 93 µM (≈ 41.2 µg/mL). For `CC(O)(c1cc(Cl)c(NC(=O)NCc2ccc(Cl)s2)c(Cl)c1)C(F)(F)F` (centres unmarked) [Example 5 (8), 1-[(5-chloro-2-thienyl)methyl]-3-[2,6-dichloro-4-(1,1,1-trifluoro-2-hydroxy-2-propanyl)phenyl]urea], the EC50 at Human KCNQ2/3 channel turned out to be 1 nM. As to `O=C(Cc1ccc(F)cc1)Nc1c(Cl)cc(Cl)cc1Br` [Comparative Example 2, N-(2-bromo-4,6-dichlorophenyl)-2-(4-fluorophenyl)acetamide, reference compound], in data set [1], the Solubility was <5 µM and the solubility at 5 h is < 5 µM. Regarding `COC(C)(c1cc(Cl)c(NC(=O)NCc2ccc(C(F)(F)F)cn2)c(Cl)c1)C(F)(F)F` (centres unmarked) [Example 71, 1-[2,6-dichloro-4-(1,1,1-trifluoro-2-methoxy-2-propanyl)phenyl]-3-{[5-(trifluoromethyl)-2-pyridinyl]methyl}urea], at Human KCNQ2/3 channel, the EC50 is 200 nM.

These data come from patent US10676438B2, “KCNQ2-5 channel activator” (Ono Pharmaceutical Co., Ltd., priority 2014, dated 2020).
